Experimental data taken from ChEMBL document CHEMBL3627608, “Crystal structures of human RIP2 kinase catalytic domain complexed with ATP-competitive inhibitors: Foundations for understanding inhibitor selectivity” (Bioorg Med Chem, 2015).

How the values were obtained:
[1] = target: Epithelial discoidin domain-containing receptor 1 (Homo sapiens) (UniProt Q08345); experiment: Inhibition of DDR1 (unknown origin) at 10 uM after 120 mins P33 radiolabeled kinase activity assay
[2] = target: Vascular endothelial growth factor receptor 3 (Homo sapiens) (UniProt P35916); experiment: Inhibition of FLT4 (unknown origin) at 10 uM after 120 mins P33 radiolabeled kinase activity assay
Vascular endothelial growth factor receptor 3 (Homo sapiens), sequence (P35916 whole entry): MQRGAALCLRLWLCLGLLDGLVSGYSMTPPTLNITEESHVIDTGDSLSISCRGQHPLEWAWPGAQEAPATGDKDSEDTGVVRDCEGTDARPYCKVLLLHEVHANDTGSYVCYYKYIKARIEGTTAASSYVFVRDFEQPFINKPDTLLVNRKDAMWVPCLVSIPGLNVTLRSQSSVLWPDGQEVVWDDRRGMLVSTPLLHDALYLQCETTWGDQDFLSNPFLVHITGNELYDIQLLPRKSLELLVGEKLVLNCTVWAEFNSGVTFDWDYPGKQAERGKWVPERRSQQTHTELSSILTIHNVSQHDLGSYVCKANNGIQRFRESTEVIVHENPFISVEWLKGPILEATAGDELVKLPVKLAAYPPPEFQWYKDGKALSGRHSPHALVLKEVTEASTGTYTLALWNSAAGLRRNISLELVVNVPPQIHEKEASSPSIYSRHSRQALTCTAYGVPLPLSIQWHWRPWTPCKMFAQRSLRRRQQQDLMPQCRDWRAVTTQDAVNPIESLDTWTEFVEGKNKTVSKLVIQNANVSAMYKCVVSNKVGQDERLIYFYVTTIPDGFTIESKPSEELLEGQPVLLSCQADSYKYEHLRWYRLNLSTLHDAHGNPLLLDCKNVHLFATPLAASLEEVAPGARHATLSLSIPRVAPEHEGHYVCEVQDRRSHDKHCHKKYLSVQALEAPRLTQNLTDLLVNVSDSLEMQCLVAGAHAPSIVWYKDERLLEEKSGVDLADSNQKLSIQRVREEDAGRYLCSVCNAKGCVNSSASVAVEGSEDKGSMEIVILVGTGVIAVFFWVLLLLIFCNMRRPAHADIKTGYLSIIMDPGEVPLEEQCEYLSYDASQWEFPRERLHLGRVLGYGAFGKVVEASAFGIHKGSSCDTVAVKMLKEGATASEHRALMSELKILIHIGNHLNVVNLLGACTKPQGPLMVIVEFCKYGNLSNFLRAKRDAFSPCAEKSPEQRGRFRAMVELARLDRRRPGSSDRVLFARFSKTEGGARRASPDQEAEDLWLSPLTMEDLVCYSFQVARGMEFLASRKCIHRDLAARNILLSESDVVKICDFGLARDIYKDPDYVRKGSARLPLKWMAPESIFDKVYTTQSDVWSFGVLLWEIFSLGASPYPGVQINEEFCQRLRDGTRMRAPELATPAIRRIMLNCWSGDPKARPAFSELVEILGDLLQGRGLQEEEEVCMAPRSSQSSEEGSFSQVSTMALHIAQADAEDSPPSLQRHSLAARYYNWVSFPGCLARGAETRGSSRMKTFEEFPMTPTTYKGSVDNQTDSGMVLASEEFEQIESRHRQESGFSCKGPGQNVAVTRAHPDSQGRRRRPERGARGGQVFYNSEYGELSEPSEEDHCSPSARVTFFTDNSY

[3] = target: T1, Serine/threonine-protein kinase LATS2 (Homo sapiens) (UniProt Q9NRM7); experiment: Inhibition of LATS2 (unknown origin) at 10 uM after 120 mins P33 radiolabeled kinase activity assay
T1 sequence (whole entry): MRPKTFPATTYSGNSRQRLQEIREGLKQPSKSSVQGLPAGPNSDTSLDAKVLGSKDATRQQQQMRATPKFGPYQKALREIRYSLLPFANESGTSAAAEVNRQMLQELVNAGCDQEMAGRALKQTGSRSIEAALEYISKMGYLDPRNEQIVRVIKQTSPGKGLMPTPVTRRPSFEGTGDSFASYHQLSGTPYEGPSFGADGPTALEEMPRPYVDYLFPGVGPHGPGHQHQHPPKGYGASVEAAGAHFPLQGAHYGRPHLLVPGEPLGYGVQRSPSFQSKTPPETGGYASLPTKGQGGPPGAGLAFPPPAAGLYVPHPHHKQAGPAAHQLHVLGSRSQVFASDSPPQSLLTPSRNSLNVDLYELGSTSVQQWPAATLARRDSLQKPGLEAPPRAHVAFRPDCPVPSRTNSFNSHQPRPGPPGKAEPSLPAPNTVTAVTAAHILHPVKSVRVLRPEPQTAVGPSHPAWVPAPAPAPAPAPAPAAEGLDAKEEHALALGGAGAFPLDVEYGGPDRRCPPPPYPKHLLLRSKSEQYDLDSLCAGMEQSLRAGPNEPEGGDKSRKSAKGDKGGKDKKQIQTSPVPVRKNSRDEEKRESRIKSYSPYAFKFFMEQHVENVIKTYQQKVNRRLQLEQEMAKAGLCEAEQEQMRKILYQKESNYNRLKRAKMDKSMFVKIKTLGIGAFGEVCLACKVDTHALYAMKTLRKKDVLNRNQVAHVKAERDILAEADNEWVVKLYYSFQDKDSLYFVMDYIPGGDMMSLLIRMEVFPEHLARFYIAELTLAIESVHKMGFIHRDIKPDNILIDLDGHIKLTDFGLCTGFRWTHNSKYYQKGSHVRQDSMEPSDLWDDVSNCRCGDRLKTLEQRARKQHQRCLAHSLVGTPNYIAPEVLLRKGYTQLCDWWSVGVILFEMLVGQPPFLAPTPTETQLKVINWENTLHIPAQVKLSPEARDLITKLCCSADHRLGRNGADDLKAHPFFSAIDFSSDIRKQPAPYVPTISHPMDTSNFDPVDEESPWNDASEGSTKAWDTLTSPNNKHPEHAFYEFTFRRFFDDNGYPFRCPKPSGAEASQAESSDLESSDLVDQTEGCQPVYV

[4] = target: STE20/SPS1-related proline-alanine-rich protein kinase (Homo sapiens) (UniProt Q9UEW8); experiment: Inhibition of STK39 (unknown origin) at 10 uM after 120 mins P33 radiolabeled kinase activity assay
[5] = target: TRAF2 and NCK-interacting protein kinase (Homo sapiens) (UniProt Q9UKE5); experiment: Inhibition of TNIK (unknown origin) at 10 uM after 120 mins P33 radiolabeled kinase activity assay
TRAF2 and NCK-interacting protein kinase (Homo sapiens), sequence (Q9UKE5 whole entry, looked up): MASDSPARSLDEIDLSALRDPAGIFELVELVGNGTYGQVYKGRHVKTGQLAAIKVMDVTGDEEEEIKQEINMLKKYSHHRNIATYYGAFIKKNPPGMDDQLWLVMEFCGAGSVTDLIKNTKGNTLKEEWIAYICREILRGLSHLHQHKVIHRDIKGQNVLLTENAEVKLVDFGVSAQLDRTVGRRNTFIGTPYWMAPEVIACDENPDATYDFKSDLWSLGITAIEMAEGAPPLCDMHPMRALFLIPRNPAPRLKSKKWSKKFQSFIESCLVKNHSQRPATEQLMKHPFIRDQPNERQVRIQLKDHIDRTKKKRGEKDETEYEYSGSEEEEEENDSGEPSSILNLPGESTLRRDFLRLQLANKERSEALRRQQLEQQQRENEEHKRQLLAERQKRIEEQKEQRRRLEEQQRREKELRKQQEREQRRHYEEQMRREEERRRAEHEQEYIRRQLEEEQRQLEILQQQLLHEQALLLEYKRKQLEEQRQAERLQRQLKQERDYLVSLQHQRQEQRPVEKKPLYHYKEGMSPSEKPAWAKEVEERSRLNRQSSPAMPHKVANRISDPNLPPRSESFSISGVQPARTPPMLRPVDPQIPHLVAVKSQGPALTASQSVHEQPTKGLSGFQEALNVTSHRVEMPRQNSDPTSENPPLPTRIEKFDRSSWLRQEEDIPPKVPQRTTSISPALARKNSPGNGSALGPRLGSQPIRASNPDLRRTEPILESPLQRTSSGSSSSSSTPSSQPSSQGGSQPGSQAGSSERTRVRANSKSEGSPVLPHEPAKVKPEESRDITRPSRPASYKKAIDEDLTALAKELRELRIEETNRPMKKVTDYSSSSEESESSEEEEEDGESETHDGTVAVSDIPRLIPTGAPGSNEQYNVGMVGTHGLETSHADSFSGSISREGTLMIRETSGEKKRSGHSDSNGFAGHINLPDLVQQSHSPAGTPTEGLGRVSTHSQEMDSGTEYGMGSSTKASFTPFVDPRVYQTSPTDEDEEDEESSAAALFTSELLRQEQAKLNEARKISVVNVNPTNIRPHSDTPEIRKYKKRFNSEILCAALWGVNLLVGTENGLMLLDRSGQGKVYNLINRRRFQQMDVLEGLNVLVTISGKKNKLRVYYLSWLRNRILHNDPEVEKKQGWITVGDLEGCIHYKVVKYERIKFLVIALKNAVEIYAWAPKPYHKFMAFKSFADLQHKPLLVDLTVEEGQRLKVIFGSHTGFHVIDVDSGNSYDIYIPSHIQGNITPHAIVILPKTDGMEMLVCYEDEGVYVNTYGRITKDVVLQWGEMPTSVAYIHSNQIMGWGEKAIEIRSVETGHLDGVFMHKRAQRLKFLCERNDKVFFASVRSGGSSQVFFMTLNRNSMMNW

[6] = target: Mitogen-activated protein kinase kinase kinase 20 (Homo sapiens) (UniProt Q9NYL2); experiment: Inhibition of ZAK (unknown origin) at 10 uM after 120 mins P33 radiolabeled kinase activity assay
Mitogen-activated protein kinase kinase kinase 20 (Homo sapiens), sequence (Q9NYL2 2-800 limits assumed): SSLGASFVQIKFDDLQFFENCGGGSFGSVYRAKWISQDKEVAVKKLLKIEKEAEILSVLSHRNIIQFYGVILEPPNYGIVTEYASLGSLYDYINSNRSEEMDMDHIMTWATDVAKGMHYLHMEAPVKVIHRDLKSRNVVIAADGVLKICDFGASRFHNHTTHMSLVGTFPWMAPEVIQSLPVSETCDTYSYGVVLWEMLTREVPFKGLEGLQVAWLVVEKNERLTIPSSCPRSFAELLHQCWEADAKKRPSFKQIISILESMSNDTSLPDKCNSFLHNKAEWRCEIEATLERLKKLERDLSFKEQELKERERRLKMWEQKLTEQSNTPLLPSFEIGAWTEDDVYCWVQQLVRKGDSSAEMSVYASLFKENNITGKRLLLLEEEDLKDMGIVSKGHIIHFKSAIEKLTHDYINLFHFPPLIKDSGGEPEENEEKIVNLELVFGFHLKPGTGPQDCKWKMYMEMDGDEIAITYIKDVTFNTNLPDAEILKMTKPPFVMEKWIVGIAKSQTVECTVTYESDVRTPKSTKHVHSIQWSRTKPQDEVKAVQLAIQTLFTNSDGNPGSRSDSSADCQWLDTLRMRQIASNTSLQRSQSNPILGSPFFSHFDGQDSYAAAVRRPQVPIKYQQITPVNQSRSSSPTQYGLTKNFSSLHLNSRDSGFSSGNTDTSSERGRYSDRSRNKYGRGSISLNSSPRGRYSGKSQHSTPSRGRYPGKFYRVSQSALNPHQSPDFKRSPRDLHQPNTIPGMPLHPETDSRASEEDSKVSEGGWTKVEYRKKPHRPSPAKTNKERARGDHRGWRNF

[7] = target: T2, Mitogen-activated protein kinase kinase kinase 6 (Homo sapiens) (UniProt O95382); experiment: Inhibition of MEKK6 (unknown origin) at 10 uM after 120 mins P33 radiolabeled kinase activity assay
T2 sequence (whole entry): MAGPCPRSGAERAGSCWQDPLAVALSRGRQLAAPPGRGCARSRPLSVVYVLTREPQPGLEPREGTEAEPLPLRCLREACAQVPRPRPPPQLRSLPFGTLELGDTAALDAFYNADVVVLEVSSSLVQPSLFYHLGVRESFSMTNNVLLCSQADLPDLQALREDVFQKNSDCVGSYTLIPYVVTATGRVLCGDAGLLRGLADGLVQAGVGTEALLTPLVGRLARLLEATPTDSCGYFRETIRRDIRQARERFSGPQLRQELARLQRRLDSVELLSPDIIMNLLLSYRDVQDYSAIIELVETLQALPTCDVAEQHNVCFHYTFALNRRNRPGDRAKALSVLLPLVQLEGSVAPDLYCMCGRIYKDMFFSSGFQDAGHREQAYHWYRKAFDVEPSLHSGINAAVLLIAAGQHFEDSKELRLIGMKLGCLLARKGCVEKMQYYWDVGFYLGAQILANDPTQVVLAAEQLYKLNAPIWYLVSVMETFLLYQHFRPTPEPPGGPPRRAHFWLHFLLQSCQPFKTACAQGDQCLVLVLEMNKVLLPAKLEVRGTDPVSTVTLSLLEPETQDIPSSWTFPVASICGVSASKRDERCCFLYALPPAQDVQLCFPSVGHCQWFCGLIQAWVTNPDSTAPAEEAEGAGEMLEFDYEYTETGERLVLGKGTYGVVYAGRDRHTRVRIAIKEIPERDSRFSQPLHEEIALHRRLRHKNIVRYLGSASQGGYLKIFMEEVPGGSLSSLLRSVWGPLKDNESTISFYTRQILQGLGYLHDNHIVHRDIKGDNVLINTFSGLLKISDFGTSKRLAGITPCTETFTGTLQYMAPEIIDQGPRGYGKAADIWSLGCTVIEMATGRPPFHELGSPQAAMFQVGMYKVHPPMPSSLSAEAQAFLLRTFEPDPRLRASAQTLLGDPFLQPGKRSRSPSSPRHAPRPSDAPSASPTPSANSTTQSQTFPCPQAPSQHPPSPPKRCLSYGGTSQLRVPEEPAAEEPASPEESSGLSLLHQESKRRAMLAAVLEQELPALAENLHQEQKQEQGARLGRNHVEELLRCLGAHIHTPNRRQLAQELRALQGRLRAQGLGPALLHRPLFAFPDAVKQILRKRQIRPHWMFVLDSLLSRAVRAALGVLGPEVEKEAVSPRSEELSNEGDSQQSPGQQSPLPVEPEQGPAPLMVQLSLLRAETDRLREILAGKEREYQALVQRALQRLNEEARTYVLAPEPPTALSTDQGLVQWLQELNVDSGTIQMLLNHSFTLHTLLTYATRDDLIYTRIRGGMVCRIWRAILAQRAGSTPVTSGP

[8] = target: Calcium/calmodulin-dependent protein kinase type 1 (Homo sapiens) (UniProt Q14012); experiment: Inhibition of CAMK1alpha (unknown origin) at 10 uM after 120 mins P33 radiolabeled kinase activity assay
Calcium/calmodulin-dependent protein kinase type 1 (Homo sapiens), sequence (Q14012 whole entry, looked up): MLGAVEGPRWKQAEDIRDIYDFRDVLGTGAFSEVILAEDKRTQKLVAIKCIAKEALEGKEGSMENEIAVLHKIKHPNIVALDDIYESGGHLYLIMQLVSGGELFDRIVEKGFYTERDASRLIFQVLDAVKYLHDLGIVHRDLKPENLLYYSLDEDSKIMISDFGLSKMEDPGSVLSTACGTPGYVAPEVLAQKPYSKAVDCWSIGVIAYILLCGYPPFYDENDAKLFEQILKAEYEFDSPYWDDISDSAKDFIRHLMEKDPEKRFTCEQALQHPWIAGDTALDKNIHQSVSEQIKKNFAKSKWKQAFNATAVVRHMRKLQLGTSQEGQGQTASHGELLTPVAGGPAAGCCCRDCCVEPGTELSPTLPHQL

[9] = target: Cyclin-dependent kinase 7/ cyclin H (Homo sapiens) (UniProt P51946+P50613); experiment: Inhibition of CDK7/cyclin H (unknown origin) at 10 uM after 120 mins P33 radiolabeled kinase activity assay; assay type: protein-complex assay

Epithelial discoidin domain-containing receptor 1 (Homo sapiens), sequence (Q08345 whole entry, the tested form may be a part): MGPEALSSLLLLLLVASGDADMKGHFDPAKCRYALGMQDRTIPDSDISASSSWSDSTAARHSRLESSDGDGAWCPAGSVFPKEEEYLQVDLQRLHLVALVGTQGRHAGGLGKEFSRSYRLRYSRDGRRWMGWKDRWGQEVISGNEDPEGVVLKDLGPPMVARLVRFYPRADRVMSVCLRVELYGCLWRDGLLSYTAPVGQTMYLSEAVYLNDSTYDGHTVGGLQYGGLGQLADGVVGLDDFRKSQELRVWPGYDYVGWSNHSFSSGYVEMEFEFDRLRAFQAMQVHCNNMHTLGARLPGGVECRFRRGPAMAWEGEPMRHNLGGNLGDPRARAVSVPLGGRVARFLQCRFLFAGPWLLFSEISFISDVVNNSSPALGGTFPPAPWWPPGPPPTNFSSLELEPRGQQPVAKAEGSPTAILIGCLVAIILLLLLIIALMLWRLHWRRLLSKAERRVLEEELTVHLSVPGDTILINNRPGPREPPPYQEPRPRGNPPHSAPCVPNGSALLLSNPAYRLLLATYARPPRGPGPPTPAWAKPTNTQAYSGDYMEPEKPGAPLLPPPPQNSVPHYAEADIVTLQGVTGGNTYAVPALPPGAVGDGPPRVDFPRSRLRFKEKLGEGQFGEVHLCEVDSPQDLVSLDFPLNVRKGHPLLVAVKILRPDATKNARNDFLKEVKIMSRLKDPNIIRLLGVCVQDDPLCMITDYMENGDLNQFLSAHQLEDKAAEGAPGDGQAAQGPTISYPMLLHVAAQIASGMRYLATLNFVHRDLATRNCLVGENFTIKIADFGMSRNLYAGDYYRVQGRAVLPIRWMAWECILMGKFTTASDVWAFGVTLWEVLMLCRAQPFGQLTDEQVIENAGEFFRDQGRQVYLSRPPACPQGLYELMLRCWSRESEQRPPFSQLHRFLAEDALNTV

| SMILES | inhibition [1] [%] | inhibition [2] [%] | inhibition [3] [%] | inhibition [4] [%] | inhibition [5] [%] | inhibition [6] [%] | inhibition [7] [%] | inhibition [8] [%] | inhibition [9] [%] |
| --- | --- | --- | --- | --- | --- | --- | --- | --- | --- |
| COCCNC(=O)c1ccc2c(c1)nc(-c1cnc(-c3ccc(Cl)cc3)[nH]1)n2CCOC | 66 | 13.7 | 2.32 | 6.77 | 48.4 | 38.8 | -0.42 | 2.42 | 2.11 |
| CS(=O)(=O)c1cccc(Nc2nccc(-c3sc(N4CCOCC4)nc3-c3cccc(NS(=O)(=O)c4c(F)cccc4F)c3)n2)c1 | 98.6 | 99.5 | 21.9 | 28.6 | 82.6 | 99.8 | -4.09 | 96.3 | 16.1 |
| CC(C)(C)c1cc(NC(=O)Nc2ccc(Oc3ccncc3)cc2)no1 | 98.1 | 98.9 | 50.2 | 52.4 | 93.9 | 99.8 | 4.35 | 15 | 0.59 |
